Patent US4973691A, “Etheric derivative of 4(3H)-quinazolinone and a process for preparation thereof” (Spojene Podniky Prozdravotnickou Vyrobu (SPOFA), priority 1988, dated 1990)
Structures can show the parent of a compound that is named as a salt.

Tests used:
in vivo = settings: po
analgesic activity = type: in vivo; settings: for ED50: po; for ED50 (analgesic activity): p.o.
[1] = extensive investigations in recent years; cited from earlier work
gastrotoxicity = settings: in vivo
[2] = LD50 (acute (short-time) toxicity)

| SMILES | LD50 (in vivo; [2]) [mg/kg] | ED50 (analgesic activity) [mg/kg] | further results |
| --- | --- | --- | --- |
| O=c1c2ccccc2ncn1CCOc1ccc(-c2ccc(F)cc2F)cc1 | 2000 |  |  |
| CC(=O)Oc1ccccc1C(=O)O [Acetylosalicylic acid] |  | 190 | LD50 (in vivo): 1070 mg/kg |
| Cc1c(N(C)C)c(=O)n(-c2ccccc2)n1C [Aminophenazone, 1-phenyl-2,3-dimethyl-4-dimethylamino-5-pyrazolone] |  | 104 | cancerogenic properties [1]: potentially cancerogenic properties; LD50 (in vivo): 800 mg/kg |
| CC(C)Cc1ccc(C(C)C(=O)O)cc1 (centres unmarked) [Ibuprofen, 2-(4-isobutylphenyl)propionic acid] |  | 179 |  |
| CC(=O)Nc1ccc(O)cc1 [Paracetamol, 4-hydroxyacetanilide] | 1090 | 285 |  |
| O=c1c2ccccc2ncn1CCOc1ccc(-c2ccc(F)cc2F)cc1 [Preferred etheric derivative (base), 3-[2-(2',4'-difluoro-4-biphenylyloxy)ethyl]-4(3H)-quinazolinone] | 1000 |  | ED50 (analgesic activity) (analgesic activity): 71 mg/kg; signs of gastrotoxicity (gastrotoxicity): free of any signs of gastrotoxicity; signs of cancerogenity (cancerogenity): free of any signs of gastrotoxicity and cancerogenity |
| O=c1c2ccccc2ncn1CCOc1ccc(-c2ccc(F)cc2F)cc1 [Preferred etheric derivative (hydrochloride salt)] |  |  | ED50 (analgesic activity) (analgesic activity): 26 mg/kg |
